We go through 30 molecules from patent US8183239B2, “Substituted piperazines and piperidines as modulators of the neuropeptide Y2 receptor” (Janssen Pharmaceutica NV, priority 2005, dated 2012).

Where only a bound is given, the exact number is not on record here.

The target in the experiment is T1, Y2 receptors (Homo sapiens, UniProt P49146).
T1 construct: endogenous in cells; host or cells: KAN-Ts cells (membranes)
T1 sequence (P49146 1-381): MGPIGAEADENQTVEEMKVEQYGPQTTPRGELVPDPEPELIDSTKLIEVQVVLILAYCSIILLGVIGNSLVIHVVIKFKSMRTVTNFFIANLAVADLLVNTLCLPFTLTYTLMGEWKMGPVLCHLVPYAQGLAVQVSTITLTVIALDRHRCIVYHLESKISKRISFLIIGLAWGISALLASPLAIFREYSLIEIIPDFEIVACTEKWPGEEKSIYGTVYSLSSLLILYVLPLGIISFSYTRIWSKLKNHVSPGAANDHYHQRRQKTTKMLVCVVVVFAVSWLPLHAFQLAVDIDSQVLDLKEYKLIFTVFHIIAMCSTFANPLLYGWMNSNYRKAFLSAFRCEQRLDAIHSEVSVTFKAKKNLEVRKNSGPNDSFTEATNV
The experiment is described as follows: Radioligand binding assay ([125I]PYY, KAN-Ts cell membranes). Particulars: Table 2, [125I]PYY 80 pM, average of results, read-out: IC50. The gist of the method:
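Membranes from KAN-Ts cells endogenously expressing Y2 incubated 1 h at rt with 80 pM [^125I]PYY ± test compound in HEPES buffer with NaCl, Ca^2+ and Mg^2+. Bound radioactivity collected by filtration; specific binding defined with […]. IC50 from sigmoidal fit, averaged over 3-8 duplicate experiments.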

With `CCN(CC)C(=O)C(c1ccccc1)N1CCN(c2ccc(C(=O)C3CCCC3)cc2F)CC1` (stereo not drawn) [Example 167, 2-[4-(4-Cyclopentanecarbonyl-2-fluoro-phenyl)-piperazin-1-yl]-N,N-diethyl-2-phenyl-acetamide], the IC50 (in general, the concentration that gives 50% inhibition) came out at 3300 nM. In the case of `CCN(CC)C(=O)C(c1ccccc1)N1CCN(c2ccc(/C(=N/O)C3CCCC3)cc2F)CC1` (stereo not drawn) [Example 168, 2-{4-[4-(Cyclopentyl-hydroxyimino-methyl)-2-fluoro-phenyl]-piperazin-1-yl}-N,N-diethyl-2-phenyl-acetamide] it was 740 nM; in that of `CCC(C)C(=O)c1ccc(N2CCN(C(C(=O)N(CC)CC)c3ccccc3)CC2)c(F)c1` (stereo not drawn) [Example 169, N,N-Diethyl-2-{4-[2-fluoro-4-(2-methyl-butyryl)-phenyl]-piperazin-1-yl}-2-phenyl-acetamide], 410 nM; in that of `CCC(CC)C(=O)NCc1ccc(N2CCN(C(C(=O)N(CC)CC)c3ccccc3)CC2)c(F)c1` (stereo not drawn) [Example 170, N-{4-[4-(Diethylcarbamoyl-phenyl-methyl)-piperazin-1-yl]-3-fluoro-benzyl}-2-ethyl-butyramide], 260 nM. The result for `CCOC(=O)C(c1ccccc1)N1CCN(c2ccc(N3CCN(C(CC)CC)S3(=O)=O)cc2F)CC1` (stereo not drawn) [Example 171, {4-[2-Fluoro-4-(5-(3-pentyl)-1,2,5-thiadiazolidine-2-yl,1,1-dioxide)-phenyl]-piperazin-1-yl}-phenyl-acetic acid ethyl ester] reads 270 nM; that for `CCCNS(=O)(=O)N(CCC)c1ccc(N2CCN(C(C(=O)N(CC)CC)c3ccccc3)CC2)c(F)c1` (stereo not drawn) [Example 172, 2-{4-[4-(1,3-Dipropyl-sulfamoyl)-2-fluoro-phenyl]-piperazin-1-yl}-N,N-diethyl-2-phenyl-acetamide], 520 nM; that for `CCN(CC)C(=O)C(c1ccccc1)N1CCN(c2ccc(N3CCN(C(=O)OC)S3(=O)=O)cc2F)CC1` (stereo not drawn) [Example 173, 3-{4-[4-(Diethylcarbamoyl-phenyl-methyl)-piperazin-1-yl]-3-fluoro-phenyl}-1,2,5-thiadiazolidine, 1,1-dioxide-2-carboxylic acid methyl ester], 590 nM.

As to `CCN(CC)C(=O)C(c1ccccc1)N1CCN(c2ccc(N3CCNS3(=O)=O)cc2F)CC1` (stereo not drawn) [Example 174, N,N-Diethyl-2-{4-[2-fluoro-4-(1,2,5-thiadiazolidine-2-yl,1,1-dioxide)-phenyl]-piperazin-1-yl}-2-phenyl-acetamide], the IC50 turned out to be 4000 nM. In the case of `CCOC(=O)C(c1ccccc1)N1CCN(c2ccc(N3CCN(C(=O)OC)S3(=O)=O)cc2F)CC1` (stereo not drawn) [Example 175, 3-{4-[4-(Ethoxycarbonyl-phenyl-methyl)-piperazin-1-yl]-3-fluoro-phenyl}-1,2,5-thiadiazolidine, 1,1-dioxide-2-carboxylic acid methyl ester], the IC50 is at least 10000 nM.

Consider `CCOC(=O)C(c1ccccc1)N1CCN(c2ccc(N3CCNS3(=O)=O)cc2F)CC1` (stereo not drawn) [Example 176, {4-[2-Fluoro-4-(1,2,5-Thiadiazolidine-2-yl,1,1-dioxide)-phenyl]-piperazin-1-yl}-phenyl-acetic acid ethyl ester], for which the IC50 is at least 10000 nM. The result for `CCOC(=O)C(c1ccccc1)N1CCN(c2ccc(N3CCN(C4CCN(CC)C4)S3(=O)=O)cc2F)CC1` (stereo not drawn) [Example 177, {4-[2-Fluoro-4-(5-(1-Ethyl-pyrrolidin-3-yl)-1,2,5-thiadiazolidine-2-yl, 1,1-dioxide)-phenyl]-piperazin-1-yl}-phenyl-acetic acid ethyl ester] reads at least 10000 nM. `CCOC(=O)C(c1ccccc1)N1CCN(c2ccc(N3CCN(C4CCOC4)S3(=O)=O)cc2F)CC1` (stereo not drawn) [Example 178, {4-[2-Fluoro-4-(5-(tetrahydro-furan-3-yl)-1,2,5-thiadiazolidine-2-yl, 1,1-dioxide)-phenyl]-piperazin-1-yl}-phenyl-acetic acid ethyl ester]: the IC50 was determined as 2900 nM. Consider `CCCN1CCN(c2ccc(N3CCN(C(C(=O)OCC)c4ccccc4)CC3)c(F)c2)S1(=O)=O` (stereo not drawn) [Example 179, {4-[2-Fluoro-4-(5-propyl-1,2,5-thiadiazolidine-2-yl,1,1-dioxide)-phenyl]-piperazin-1-yl}-phenyl-acetic acid ethyl ester], for which the IC50 was 540 nM. Turning to `CCOC(=O)C(c1ccccc1)N1CCN(c2ccc(N3CCN(C4CCCC4)S3(=O)=O)cc2F)CC1` (stereo not drawn) [Example 180, {4-[2-Fluoro-4-(5-cyclopentyl-1,2,5-thiadiazolidine-2-yl,1,1-dioxide)-phenyl]-piperazin-1-yl}-phenyl-acetic acid ethyl ester], the IC50 worked out at 770 nM. With `CCN(CC)C(=O)C(c1ccccc1)N1CC=C(c2ccc(C(=O)OC)cc2F)CC1` (stereo not drawn) [Example 181, 4-[1-(Diethylcarbamoyl-phenyl-methyl)-1,2,3,6-tetrahydro-pyridin-4-yl]-3-fluoro-benzoic acid methyl ester], the IC50 came out at 9300 nM. As to `CCC(CC)C(=O)Nc1cnc(N2CCN(C(C(=O)N(CC)CC)c3ccccc3)CC2)nc1` (stereo not drawn) [Example 182, N-{2-[4-(Diethylcarbamoyl-phenyl-methyl)-piperazin-1-yl]-pyrimidin-5-yl}-2-ethyl-butyramide], the IC50 is 1650 nM. The result for `CCC(CC)C(=O)Nc1ccc(N2CCN(C(C(=O)N(CC)CC)c3ccccc3)CC2)nn1` (stereo not drawn) [Example 183, N-{6-[4-(Diethylcarbamoyl-phenyl-methyl)-piperazin-1-yl]-pyridazin-3-yl}-2-ethyl-butyramide] reads 4500 nM; that for `CCC(CC)C(=O)Nc1ccc(N2CCN(C(C(=O)NN)c3ccccc3)CC2)c(F)c1` (stereo not drawn) [Example 184, 2-Ethyl-N-{3-fluoro-4-[4-(hydrazinocarbonyl-phenyl-methyl)-piperazin-1-yl]-phenyl}-butyramide], 870 nM.

For the molecule `CCN(CC)C(=O)C(c1ccccc1)N1CCN(c2ccc(C(=O)OC)cc2F)CC1` (stereo not drawn) [Example 185, 4-[4-(Diethylcarbamoyl-phenyl-methyl)-piperazin-1-yl]-3-fluoro-benzoic acid methyl ester], the IC50 was determined as 2400 nM. As for `CCN(CC)C(=O)C(c1ccccc1)C1CCN(c2ccc(NC(=O)c3ccnn3CC)cc2F)CC1` (stereo not drawn) [Example 186, 2-Ethyl-2H-pyrazole-3-carboxylic acid {4-[4-(diethylcarbamoyl-phenyl-methyl)-piperidin-1-yl]-3-fluoro-phenyl}-amide], the IC50 stood at 210 nM. As for `CCN(CC)C(=O)C(c1ccccc1)C1CCN(c2ccc(NC(=O)c3cccn3CC)cc2F)CC1` (stereo not drawn) [Example 187, 1-Ethyl-1H-pyrrole-2-carboxylic acid {4-[4-(diethylcarbamoyl-phenyl-methyl)-piperidin-1-yl]-3-fluoro-phenyl}-amide], the IC50 came to 148 nM. Consider `CCCCC(O)(c1ccccc1)C1CCN(c2ccc(NC(=O)C(CC)CC)cc2F)CC1` (stereo not drawn) [Example 188, 2-Ethyl-N-{3-fluoro-4-[4-(1-hydroxy-1-phenyl-pentyl)-piperidin-1-yl]-phenyl}-butyramide], for which the IC50 worked out at 200 nM. On to `CCCCC(c1ccccc1)C1CCN(c2ccc(NC(=O)C(CC)CC)cc2F)CC1` (stereo not drawn) [Example 189, 2-Ethyl-N-{3-fluoro-4-[4-(1-phenyl-pentyl)-piperidin-1-yl]-phenyl}-butyramide], for which the IC50 was at least 10000 nM. As to `CCC(CC)NC(=O)c1ccc(N2CCN(C(C(=O)N(CC)CC)c3ccccc3)CC2)c(F)c1` (stereo not drawn) [Example 190, 4-[4-(Diethylcarbamoyl-phenyl-methyl)-piperazin-1-yl]-N-(1-ethyl-propyl)-3-fluoro-benzamide], the IC50 stood at 5700 nM. Regarding `CCN(CC)C(=O)C(c1ccccc1)N1CCN(c2ccc(Nc3ccccn3)cc2F)CC1` (stereo not drawn) [Example 191, N,N-Diethyl-2-{4-[2-fluoro-4-(pyridin-2-ylamino)-phenyl]-piperazin-1-yl}-2-phenyl-acetamide], the IC50 turned out to be 380 nM. Consider `CCN(CC)C(=O)C(c1ccccc1)N1CCN(c2ccc(Nc3ncccc3C)cc2F)CC1` (stereo not drawn) [Example 192, N,N-Diethyl-2-{4-[2-fluoro-4-(3-methyl-pyridin-2-ylamino)-phenyl]-piperazin-1-yl}-2-phenyl-acetamide], for which the IC50 was determined as 5000 nM. As for `CCC(CC)C(=O)Nc1ccc(C2=CCN(C(C(=O)N(CC)CC)c3ccccc3)CC2)c(F)c1` (stereo not drawn) [Example 193, N-{4-[1-(Diethylcarbamoyl-phenyl-methyl)-1,2,3,6-tetrahydro-pyridin-4-yl]-3-fluoro-phenyl}-2-ethyl-butyramide], the IC50 came to 140 nM.

In the case of `CCC(CC)C(=O)Nc1ccc(C2CCN(C(C(=O)N(CC)CC)c3ccccc3)CC2)c(F)c1` (stereo not drawn) [Example 194, N-{4-[1-(Diethylcarbamoyl-phenyl-methyl)-piperidin-4-yl]-3-fluoro-phenyl}-2-ethyl-butyramide], the IC50 came to 100 nM. Consider `CCC(CC)C(=O)Nc1ccc(N2CCN(C(C(=O)N(CC)CC)c3cccc(Cl)c3)CC2)c(F)c1` (stereo not drawn) [Example 195, N-(4-{4-[(3-Chloro-phenyl)-diethylcarbamoyl-methyl]-piperazin-1-yl}-3-fluoro-phenyl)-2-ethyl-butyramide], for which the 50% inhibitory concentration (IC50) was 50 nM. The result for `CCC(CC)C(=O)Nc1ccc(N2CCN(C(C(=O)N3CCC(F)(F)CC3)c3cccc(F)c3)CC2)c(F)c1` (stereo not drawn) [Example 196, N-(4-{4-[2-(4,4-Difluoro-piperidin-1-yl)-1-(3-fluoro-phenyl)-2-oxo-ethyl]-piperazin-1-yl}-3-fluoro-phenyl)-2-ethyl-butyramide] reads 107 nM.
